The target in one assay is T1, GST-JAK2(808-1132) (Homo sapiens, UniProt O60674).
T1 construct: GST-JAK2(808-1132); purchased Invitrogen (Carlsbad, USA) #4288
In words: JAK2 kinase assay (Caliper mobility shift, LabChip 3000). In kind it is biochemical. The gist of the method:
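Recombinant GST-JAK2(808-1132) kinase domain with FITC-labelled JAK3tide peptide substrate and ATP; 60 min at 30 °C, EDTA stop. Substrate/product ratio read by microfluidic mobility shift; compounds at 8 final concentrations, 10 to 0.003 μM.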

The subject of assay [1] is JAK2-dependent nuclear translocation of STAT5-GFP in U-2 OS osteosarcoma cells. The experiment in a line: STAT5 nuclear translocation assay (Cellomics), rhEpo stimulated U-2 OS STAT5-GFP cells. In kind it is cell-based. The following applies: Homo sapiens, U2OS; STAT5 translocation pathway. From the text:
The medium-throughput (96-well format) cellular automated fluorescence microscopy Cellomics assay can be routinely used to assess the functional activation of Janus Kinases (JAKs), based on the nuclear translocation of their substrate, Signal Transducer and Activator of Transcription (STAT). Nuclear translocation can be monitored either in HT1080 fibrosarcoma cells stably transfected with STAT1 fused to Green Fluorescence Protein (GFP) or in U-2 OS osteosarcoma cells stably transfected with STAT5 fused to Green Fluorescence Protein (GFP). Stimulation of HT1080 cells with interferon-γ (IFN-γ) results in JAK1/JAK2-dependent nuclear translocation of STAT1-GFP, whereas stimulation of U-2 OS cells with recombinant human erythropoietin (rhEpo) results in JAK2-dependent nuclear translocation of STAT5-GFP, both of which can be quantified using the Cellomics Cyto/NucTrans software package. This assay may be used to provide an assessment of the nuclear-cytoplasmic differential (NCD) of STAT-GFP using Hoechst dye to define the boundaries of the nucleus.
U-2 OS osteosarcoma cells may be obtained from ATCC and can be cultured in standard RPMI medium supplemented with 10% FCS and 2 mM L-glutamine. Cells can be stably transfected with STAT5a-GFP using Lipofectamine following the manufacturers' protocol. 24 hours after transfection the medium can be replaced and selected in 400 μg/ml Geneticin. Subsequently, cells can be stably transfected with EpoR using Lipofectamine following the manufacturers' protocol. 24 hours after transfection the medium can be replaced and cells selected in 100 μg/ml Hygromycin B.
Compounds can be dissolved in DMSO to a final stock concentration of 10 mM and stored as aliquots at 4° C. Compounds may be pre-diluted in 100% DMSO at 10 mM, 3 mM 1 mM, 0.3 mM, 0.1 mM, 0.03 mM, 0.01 mM and 0.003 mM. Subsequently, compounds may be diluted in medium and added in 50 μl to the cells. The final compound concentrations tested may be 10 μM, 3 μM 1 μM, 0.3 μM, 0.1 μM, 0.03 μM, 0.01 μM and 0.003 μM and the final DMSO concentration can be 0.1%.
U-2 OS may be seeded at a cell density of 12,000 cells per well in clear-bottom black 96-well Packard View-Plates™. The following day, medium can be removed and replaced with medium containing either the vehicle (DMSO) or increasing concentrations of test compounds for 30 minutes at 37° C. Cells can then be stimulated for 1 hour by adding 10 μl per well of 50 U/ml rhEpo to obtain 5 U/ml of rhEpo as the final concentration. Following treatments, cells can fixed and processed as described above.
The plates can be read on a Cellomics® ArrayscanII automated fluorescence microscope plate reader equipped with a Mercury-Xenon white light illumination source and a Zeiss Axiovert inverted microscope, using the XF100 dichroic/emission filter cube and matching excitation filters, 10× magnification, and a 0.3 numerical aperture objective. Image acquisition and analysis can be performed using a customized protocol based on the ‘NuclearTranslocation’ Bioapplication. For each well, multiple images (fields) can be acquired until a minimum of 1000 cells are counted using two 2 channels: Channel 1 (Hoechst)=focus+nuclear mask, Channel 2 (GFP)=signal quantification in mask areas as outlined below. Nuclei may be first identified based on the Hoechst staining and a mask generated for each nucleus that then serves as a template to generate a circle (eroded inwards by 1 pixel) and a 3 pixel-wide collar-like ring (off-set outwards by 1 pixel), in which the nuclear and cytoplasmic intensity of GFP, respectively, are quantified in the corresponding channel. High content analysis yields numerous measurements per cell and the GFP intensity differential between the nuclear and the cytoplasmic masks may be chosen as a measure of sub-cellular STAT-GFP relocation. The resulting values may be averaged for all cells in the well to return a single measurement plus standard deviation. […]

Consider 17 compounds from patent publication US8420657B2 (Novartis AG, priority 2008, dated 2013).

T1 sequence (O60674 808-1132): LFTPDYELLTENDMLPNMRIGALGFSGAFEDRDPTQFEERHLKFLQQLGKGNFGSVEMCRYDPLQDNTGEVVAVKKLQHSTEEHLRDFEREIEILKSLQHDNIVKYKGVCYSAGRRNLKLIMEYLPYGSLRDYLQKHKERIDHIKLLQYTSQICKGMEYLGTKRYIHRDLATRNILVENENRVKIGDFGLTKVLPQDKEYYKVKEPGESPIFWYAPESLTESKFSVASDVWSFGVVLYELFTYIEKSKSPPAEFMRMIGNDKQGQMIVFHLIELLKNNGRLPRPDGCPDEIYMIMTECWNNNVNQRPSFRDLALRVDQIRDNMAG

Consider `Fc1cc(-n2ccc3cnc(Nc4ccnc(CN5CCNC(C(F)(F)F)C5)c4)nc32)cc(F)c1CN1CCOCC1` (racemic) [Example 408, [7-(3,5-Difluoro-4-morpholin-4-ylmethyl-phenyl)-7H-pyrrolo[2,3-d]pyrimidin-2-yl]-[2-(3-trifluoromethyl-piperazin-1-ylmethyl)-pyridin-4-yl]-amine], for which the IC50 on GST-JAK2(808-1132) is at most 3 nM; in assay [1], 9.2 nM.
For `Cc1ccc(Nc2ncc3ccn(-c4cc(F)c(CN5CCOCC5)c(F)c4)c3n2)cc1CN1C[C@@H](C)N[C@@H](C)C1` [Example 355, [7-(3,5-Difluoro-4-morpholin-4-yl methyl-phenyl)-7H-pyrrolo[2,3-d]pyrimidin-2-yl]-[3-(cis-3,5-dimethyl-piperazin-1-ylmethyl)-4-methyl-phenyl]-amine] the same measures were 3.7 nM and 5.3 nM.
For `Fc1cc(-n2ccc3cnc(Nc4ccnc(CN5CCN(C6CC6)CC5)c4)nc32)cc(F)c1CN1CCOCC1` [Example 407, [2-(4-Cyclopropyl-piperazin-1-ylmethyl)-pyridin-4-yl]-[7-(3,5-difluoro-4-morpholin-4-ylmethyl-phenyl)-7H-pyrrolo[2,3-d]pyrimidin-2-yl]-amine] the same measures were at most 3 nM and 305 nM.
Consider `O=C(c1cc(Nc2ncc3ccn(-c4cc(F)c(CN5CCOCC5)c(F)c4)c3n2)ccn1)N1CCOC2(COC2)C1` [Example 362, {4-[7-(3,5-Difluoro-4-morpholin-4-ylmethyl-phenyl)-7H-pyrrolo[2,3-d]pyrimidin-2-ylamino]-pyridin-2-yl}-(2,5-dioxa-8-aza-spiro[3.5]non-8-yl)-methanone], for which the IC50 at GST-JAK2(808-1132) stood at 24 nM; in assay [1] it was 152 nM.
In the case of `Cc1ccc(Nc2ncc3ccn(-c4cc(F)c(CN5CCOCC5)c(F)c4)c3n2)cc1CN1CCC(F)(F)C1` [Example 393, [7-(3,5-Difluoro-4-morpholin-4-ylmethyl-phenyl)-7H-pyrrolo[2,3-d]pyrimidin-2-yl]-[3-(3,3-difluoro-pyrrolidin-1-ylmethyl)-4-methyl-phenyl]-amine], the IC50 on GST-JAK2(808-1132) stood at 13 nM; in assay [1], 52 nM.
For `C[C@@H]1CN(c2ccc(Nc3ncc4ccn(-c5ccc(C(=O)N6CCOCC6)c(F)c5)c4n3)cn2)C[C@H](C)N1` [Example 499, (4-{2-[6-(cis-3,5-Dimethyl-piperazin-1-yl)-pyridin-3-ylamino]-pyrrolo[2,3-d]pyrimidin-7-yl}-2-fluoro-phenyl)-morpholin-4-yl-methanone] the same measures were 4.8 nM and 220 nM.
Consider `COc1cc(Nc2ncc3ccn(-c4cc(F)c(CN5CCOCC5)c(F)c4)c3n2)cnc1N1C[C@@H](C)N[C@@H](C)C1` [Example 497, [7-(3,5-Difluoro-4-morpholin-4-ylmethyl-phenyl)-7H-pyrrolo[2,3-d]pyrimidin-2-yl]-[6-(cis-3,5-dimethyl-piperazin-1-yl)-5-methoxy-pyridin-3-yl]-amine], for which the results for the IC50 (on GST-JAK2(808-1132); in assay [1]) were at most 3 nM and 7.7 nM, respectively.
`Cc1ccc(Nc2ncc3ccn(-c4cc(F)c(CN5CCOCC5)c(F)c4)c3n2)cc1CN1CCOC2(COC2)C1` [Example 358, [7-(3,5-Difluoro-4-morpholin-4-ylmethyl-phenyl)-7H-pyrrolo[2,3-d]pyrimidin-2-yl]-[3-(2,5-dioxa-8-aza-spiro[3,5]non-8-ylmethyl)-4-methyl-phenyl]-amine]: the IC50 at GST-JAK2(808-1132) came out at 7.2 nM; in assay [1] it was 59 nM.
For `Fc1cc(-n2ccc3cnc(Nc4ccc5c(c4)C4CCC5N4)nc32)cc(F)c1CN1CCOCC1` (stereo not shown) [Example 424, [7-(3,5-Difluoro-4-morpholin-4-ylmethyl-phenyl)-7H-pyrrolo[2,3-d]pyrimidin-2-yl]-(1,2,3 4-tetrahydro-1,4-epiazano-naphthalen-6-yl)-amine] the same measures were at most 3 nM and 9 nM.
For `C[C@@H]1CN[C@@H](C)CN1c1ccc(Nc2ncc3ccn(-c4ccc(S(=O)(=O)NC(C)(C)C)cc4)c3n2)cn1` (racemic) [Example 356, N-tert-Butyl-4-{2-[6-((2R,5S)-2,5-dimethyl-piperazin-1-yl)-pyridin-3-ylamino]-pyrrolo[2,3-d]pyrimidin-7-yl}-benzenesulfonamide] the same measures were 3.2 nM and 5.9 nM.
As for `O=C1CNCCN1Cc1ccc(Nc2ncc3ccn(-c4cc(F)c(CN5CCOCC5)c(F)c4)c3n2)cc1` [Example 498, 1-{4-[7-(3,5-Difluoro-4-morpholin-4-ylmethyl-phenyl)-7H-pyrrolo[2,3-d]pyrimidin-2-ylamino]-benzyl}-piperazin-2-one], the IC50 at GST-JAK2(808-1132) was at most 3 nM; in assay [1] it was 83 nM.
`Cc1ccc(Nc2ncc3ccn(-c4cc(F)c(CN5CCOCC5)c(F)c4)c3n2)cc1CN1CCN(C)C(=O)C1` [Example 395, 4-{5-[7-(3,5-Difluoro-4-morpholin-4-ylmethyl-phenyl)-7H-pyrrolo[2,3-d]pyrimidin-2-ylamino]-2-methyl-benzyl}-1-methyl-piperazin-2-one]: the IC50 at GST-JAK2(808-1132) is at most 3 nM; in assay [1] it was 17 nM.
For `Cc1ccc(Nc2ncc3ccn(-c4cc(F)c(CN5CCOCC5)c(F)c4)c3n2)cc1Cn1cc(CN(C)C)nn1` [Example 418, [7-(3,5-Difluoro-4-morpholin-4-ylmethyl-phenyl)-7H-pyrrolo[2,3-d]pyrimidin-2-yl]-[3-(4-dimethylaminomethyl-[1,2,3]triazol-1-ylmethyl)-4-methyl-phenyl]-amine] the same measures were 4.6 nM and 16 nM.
For `C[C@@H]1CN(C(=O)c2cc(Nc3ncc4ccn(-c5cc(F)c(CN6CCOCC6)c(F)c5)c4n3)ccn2)C[C@H](C)N1` [Example 371, {4-[7-(3,5-Difluoro-4-morpholin-4-ylmethyl-phenyl)-7H-pyrrolo[2,3-d]pyrimidin-2-ylamino]-pyridin-2-yl}-(cis-3,5-dimethyl-piperazin-1-yl)-methanone] the same measures were 13 nM and 135 nM.
For `CN1CCN(c2ccc(Nc3ncc4ccn(-c5cc(F)c(CN6CCOCC6)c(F)c5)c4n3)cn2)C(=O)C1` [Example 478, 1-{5-[7-(3,5-Difluoro-4-morpholin-4-ylmethyl-phenyl)-7H-pyrrolo[2,3-d]pyrimidin-2-ylamino]-pyridin-2-yl}-4-methyl-piperazin-2-one] the same measures were 5.5 nM and 51 nM.
`Cc1ccc(Nc2ncc3ccn(-c4cc(F)c(CN5CCCC5=O)c(F)c4)c3n2)cc1CN1CCNCC1` [Example 463, 1-{2,6-Difluoro-4-[2-(4-methyl-3-piperazin-1-ylmethyl-phenylamino)-pyrrolo[2,3-d]pyrimidin-7-yl]-benzyl}-pyrrolidin-2-one]: the figures for the IC50 (on GST-JAK2(808-1132); in assay [1]) were at most 3 nM and 48 nM, respectively.
As to `Cc1ccc(Nc2ncc3ccn(-c4cc(F)c(CN5CCOCC5)c(F)c4)c3n2)cc1Cn1cc(CO)nn1` [Example 419, (1-{5-[7-(3,5-Difluoro-4-morpholin-4-ylmethyl-phenyl)-7H-pyrrolo[2,3-d]pyrimidin-2-ylamino]-2-methyl-benzyl}-1H-[1 2,3]triazol-4-yl)-methanol], the IC50 at GST-JAK2(808-1132) was 4.3 nM; in assay [1], 38.5 nM.

As a reminder, the IC50 is the concentration at which inhibition is half-maximal.
